Where a name gives a salt, the structure may show the parent alone.
Molecular target: T1, human hNET (Homo sapiens, UniProt P23975)
T1 construct: expressed in transfected cells; host or cells: MDCK-Net6 (MDCK cells, stably transfected)
Experiment: Norepinephrine (NE) uptake assay in MDCK-Net6 cells
Assay type: cell-based
Conditions: 1 μM test compound, [3H]NE uptake
Description: Cells were plated at 300,000/T75 flask and cells were split twice weekly. […] Cells were plated at 250,000 cells/T75 flask and split twice weekly.
Norepinephrine (NE) Uptake Assay
On day 1, cells were plated at 3,000 cells/well in growth medium and maintained in a cell incubator (37° C., 5% CO2). On day 2, growth medium was replaced with 200 μl of assay buffer (25 mM HEPES; 120 mM NaCl; 5 mM KCl; 2.5 mM CaCl2; 1.2 mM MgSO4; 2 mg/ml glucose (pH 7.4, 37° C.)) containing 0.2 mg/ml ascorbic acid and 10 μM pargyline. Plates containing cells with 200 μl of assay buffer were equilibrated for 10 minutes at 37° C. prior to addition of compounds. A stock solution of desipramine was prepared in DMSO (10 mM) and delivered to triplicate wells containing cells for a final test concentration of 1 μM. Data from these wells were used to define non-specific NE uptake (minimum NE uptake). Test compounds were prepared in DMSO (10 mM) and diluted in assay buffer according to test range (1 to 10,000 nM). Twenty-five microliters of assay buffer (maximum NE uptake) or test compound were added directly to triplicate wells containing cells in 200 μl of assay buffer. The cells in assay buffer with test compounds were incubated for 20 minutes at 37° C. […] The reaction was terminated by decanting the supernatant from the plate. The plates containing cells were washed twice with 200 μl assay buffer (37° C.) to remove free radioligand. The plates were then inverted, left to dry for 2 minutes, then reinverted and air-dried for an additional 10 minutes. The cells were lysed in 25 μl of 0.25 N NaOH solution (4° C.), placed on a shake table and vigorously shaken for 5 minutes. After cell lysis, 75 μl of scintillation cocktail was added to each well and the plates were sealed with film tape. The plates were returned to the shake table and vigorously shaken for a minimum of 10 minutes to ensure adequate partitioning of organic and aqueous solutions. The plates were counted in a Wallac Microbeta counter (PerkinElmer) to collect the raw cpm data.
For each experiment, a data stream of cpm values collected from the Wallac Microbeta counter was downloaded to a Microsoft Excel statistical application program. Calculations of EC50 values were made using the transformed-both-sides logistic dose response program written by Wyeth Biometrics Department.

T1 sequence (P23975 whole entry): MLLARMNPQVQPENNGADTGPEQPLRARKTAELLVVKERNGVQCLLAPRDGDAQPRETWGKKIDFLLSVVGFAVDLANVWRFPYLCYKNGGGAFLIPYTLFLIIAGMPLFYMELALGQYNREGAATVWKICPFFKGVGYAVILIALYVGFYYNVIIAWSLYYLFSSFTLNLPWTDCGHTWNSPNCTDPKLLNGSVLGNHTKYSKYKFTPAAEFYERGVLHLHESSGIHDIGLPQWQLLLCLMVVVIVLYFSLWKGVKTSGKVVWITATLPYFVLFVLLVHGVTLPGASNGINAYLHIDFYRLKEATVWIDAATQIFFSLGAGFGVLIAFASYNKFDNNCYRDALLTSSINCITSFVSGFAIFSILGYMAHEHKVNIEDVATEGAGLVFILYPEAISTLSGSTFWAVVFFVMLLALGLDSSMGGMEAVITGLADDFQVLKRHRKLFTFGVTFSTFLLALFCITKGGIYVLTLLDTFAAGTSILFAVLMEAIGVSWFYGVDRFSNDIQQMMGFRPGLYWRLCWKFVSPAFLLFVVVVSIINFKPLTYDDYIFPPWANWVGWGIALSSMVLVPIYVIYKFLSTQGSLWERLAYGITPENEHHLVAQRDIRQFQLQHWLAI

% Inhibition @ 1 μM (hNET)	Compound
48%	1-[1-[4-methoxy-3-(trifluoromethoxy)phenyl]-2-(4-methylpiperazin-1-yl)ethyl]cyclohexanoldihydrochloride [Example 403]

Same assay, conditions: 1 μM test compound, [3H]NE uptake, read-out: % Inhibition @ 1 μM (hNET)

inhibition at 1 µM	Compound
92%	CC(CCN1CCN(C[C@H](c2cccc(OC(F)(F)F)c2)C2(O)CCCCC2)CC1)c1ccccc1 (stereo partly drawn) [Example 347, 1-{(1S)-2-[4-(3-phenylbutyl)piperazin-1-yl]-1-[3-(trifluoromethoxy)phenyl]ethyl}cyclohexanol dihydrochloride]
0%	CN1CCN(CC(c2ccc(OCC3CCCCC3)cc2)C2(O)CCCCC2)CC1 (centres unmarked) [Example 468, 1-[1-[4-(cyclohexylmethoxy)phenyl]-2-(4-methylpiperazin-1-yl)ethyl]cyclohexanol dihydrochloride]
99.7%	CN1CCN(C[C@H](c2ccc(OCc3ccccc3)c(Cl)c2)C2(O)CCCCC2)CC1 [Example 326, 1-[(1S)-1-[4-(benzyloxy)-3-chlorophenyl]-2-(4-methylpiperazin-1-yl)ethyl]cyclohexanol dihydrochloride]
75%	CN1CCN(CC(c2ccc(OCc3cccc(C(F)(F)F)c3)c(Cl)c2)C2(O)CCCCC2)CC1 (centres unmarked) [Example 424, 1-[1-(3-chloro-4-{[3-(trifluoromethyl)benzyl]oxy}phenyl)-2-(4-methylpiperazin-1-yl)ethyl]cyclohexanol dihydrochloride]
42%	CCOc1ccc(C(CN2CCNCC2)C2(O)CCCCC2)cc1OC(F)(F)F (centres unmarked) [Example 404, 1-{1-[4-ethoxy-3-(trifluoromethoxy)phenyl]-2-piperazin-1-ylethyl}cyclohexanol dihydrochloride]
68%	CC[C@@H]1CN(C[C@H](c2cccc(OC(F)(F)F)c2)C2(O)CCCCC2)CCN1C [Example 352, 1-{(1S)-2-[(3R)-3-ethyl-4-methylpiperazin-1-yl]-1-[3-(trifluoromethoxy)phenyl]ethyl}cyclohexanol dihydrochloride]
25%	CN1CCN(CC(c2ccc(O)c(OC(F)(F)F)c2)C2(O)CCCCC2)CC1 (centres unmarked) [Example 401, 4-[1-(1-hydroxycyclohexyl)-2-(4-methylpiperazin-1-yl)ethyl]-2-(trifluoromethoxy)phenol dihydrochloride]
35%	OC1(C(CN2CCNCC2)c2ccc(OCCc3ccccc3)c(Cl)c2)CCCCC1 (centres unmarked) [Example 452, 1-{1-[3-chloro-4-(2-phenylethoxy)phenyl]-2-piperazin-1-ylethyl}cyclohexanol dihydrochloride]
98%	COc1cc(C(CN2CCNCC2)C2(O)CCCCC2)ccc1OCc1ccc2ccccc2c1 (centres unmarked) [Example 444, 1-{1-[3-methoxy-4-(2-naphthylmethoxy)phenyl]-2-piperazin-1-ylethyl}cyclohexanol dihydrochloride]
78%	Cc1ccc(COc2ccc(C(CN3CCNCC3)C3(O)CCCCC3)cc2F)cc1 (centres unmarked) [Example 417, 1-(1-{3-fluoro-4-[(4-methylbenzyl)oxy]phenyl}-2-piperazin-1-ylethyl)cyclohexanol dihydrochloride]
69%	COc1cc(C(CN2CCNCC2)C2(O)CCCCC2)ccc1OCc1ccc(Br)cc1F (centres unmarked) [Example 446, 1-(1-{4-[(4-bromo-2-fluorobenzyl)oxy]-3-methoxyphenyl}-2-piperazin-1-ylethyl)cyclohexanol]
79%	CN1CCN(CC(c2ccc(OCc3cccc(C(F)(F)F)c3)cc2)C2(O)CCCCC2)CC1 (centres unmarked) [Example 439, 1-[2-(4-methylpiperazin-1-yl)-1-(4-{[3-(trifluoromethyl)benzyl]oxy}phenyl)ethyl]cyclohexanol dihydrochloride]
34%	OC1(C(CN2CCNCC2)c2ccc(OCc3ccc(Br)cc3F)cc2)CCCCC1 (centres unmarked) [Example 434, 1-(1-{4-[(4-bromo-2-fluorobenzyl)oxy]phenyl}-2-piperazin-1-ylethyl)cyclohexanol]
88%	COc1cc(C(CN2CCN(C)CC2)C2(O)CCCCC2)ccc1OCc1ccc(C(F)(F)F)cc1 (centres unmarked) [Example 449, 1-[1-(3-methoxy-4-{[4-(trifluoromethyl)benzyl]oxy}phenyl)-2-(4-methylpiperazin-1-yl)ethyl]cyclohexanol dihydrochloride]

Second part, the compound before the results:

Compound	inhibition at 1 µM
NC1CCN(CC(c2cccc(-c3ccc(Cl)c(Cl)c3)c2)C2(O)CCCCC2)CC1 (centres unmarked) [Example 152, 1-[2-(4-aminopiperidin-1-yl)-1-(3′,4′-dichloro-1,1′-biphenyl-3-yl)ethyl]cyclohexanol dihydrochloride]	1%
CN1CCN(CC(c2cccc(Oc3ccccc3)c2)C2(O)CCCCC2)CC1 (centres unmarked) [Example 312, 1-[2-(4-methylpiperazin-1-yl)-1-(3-phenoxyphenyl)ethy]cyclohexanol dihydrochloride]	57.3%
OC1(C(CN2CCNCC2)c2ccc(OCc3ccccc3)c(C(F)(F)F)c2)CCCCC1 (centres unmarked) [Example 263, 1-{1-[4-(benzyloxy)-3-(trifluoromethyl)phenyl]-2-piperazin-1-ylethyl}cyclohexanol dihydrochloride]	31%
OC1(C(CN2CCN(CC3CCCCC3)CC2)c2cccc(Oc3ccccc3)c2)CCCCC1 (centres unmarked) [Example 313, 1-[2-[4-(cyclohexylmethyl)piperazin-1-yl]-1-(3-phenoxyphenyl)ethyl]cyclohexanol dihydrochloride]	57.3%
OC1(C(CN2CCNCC2)c2ccc(OCc3ccccc3)cc2)CCC1 (centres unmarked) [Example 70, 1-{1-[4-(benzyloxy)phenyl]-2-piperazin-1-ylethyl}cyclobutanol dihydrochloride]	8%
CC#Cc1cccc(C(CN2CCN(C)CC2)C2(O)CCCCC2)c1 (centres unmarked) [Example 301, 1-[2-(4-methylpiperazin-1-yl)-1-(3-prop-1-ynylphenyl)ethyl]cyclohexanol dihydrochloride]	23%
CN1CCN(CC(c2ccc(-c3ccccc3Cl)cc2)C2(O)CCCCC2)CC1 (centres unmarked) [Example 175, 1-[1-(2′-chloro-1,1′-biphenyl-4-yl)-2-(4-methylpiperazin-1-yl)ethyl]cyclohexanol dihydrochloride]	20%
OC1(C(CN2CCNCC2)c2cccc(OC(F)(F)F)c2)CCC1 (centres unmarked) [Example 46, 1-{2-piperazin-1-yl-1-[3-(trifluoromethoxy)phenyl]ethyl}cyclobutanol dihydrochloride]	44%
N#Cc1cccc(-c2ccc(C(CN3CCNCC3)C3(O)CCCCC3)cc2)c1 (centres unmarked) [Example 168, 1-[1-(3′-cyano-1,1′-biphenyl-4-yl)-2-piperazin-1-ylethyl]cyclohexanol dihydrochloride]	66%
CN1CCN(CC(c2ccc(OCc3ccccc3)c(Br)c2)C2(O)CCCCC2)CC1 (centres unmarked) [Example 265, 1-[1-[4-(benzyloxy)-3-bromophenyl]-2-(4-methylpiperazin-1-yl)ethyl]cyclohexanol dihydrochloride]	44%
CN1CCN(CC(c2ccc(OCc3ccccc3)c(C#N)c2)C2(O)CCCCC2)CC1 (centres unmarked) [Example 267, 2-(benzyloxy)-5-[1-(1-hydroxycyclohexyl)-2-(4-methylpiperazin-1-yl)ethyl]benzonitrile dihydrochloride]	89%
OC1(C(CN2CCNCC2)c2cccc(-c3ccc(Cl)cc3)c2)CCCCC1 (centres unmarked) [Example 137, 1-[1-(4′-chloro-1,1′-biphenyl-3-yl)-2-piperazin-1-ylethyl]cyclohexanol dihydrochloride]	41%
OC1(C(CN2CCNCC2)c2cccc(OCc3ccccc3)c2)CCCCC1 (centres unmarked) [Example 104, 1-{1-[3-(benzyloxy)phenyl]-2-piperazin-1-ylethyl}cyclohexanol dihydrochloride]	3%

Same assay, conditions: 10 μM test compound (stated in the cell), [3H]NE uptake

inhibition at 10 µM	Compound
70.7%	COc1ccc(C(CN2CCN(C)CC2)C2(O)CCCCC2)cc1-c1ccc(Cl)c(Cl)c1 (centres unmarked) [Example 255, 1-[1-(3′,4′-dichloro-6-methoxy-1,1′-biphenyl-3-yl)-2-(4-methylpiperazin-1-yl)ethyl]cyclohexanol dihydrochloride]
35.9%	CN1CCN(CC(c2ccc(Oc3ccccc3)cc2)C2(O)CCCCC2)CC1 (centres unmarked) [Example 308, 1-[2-(4-methylpiperazin-1-yl)-1-(4-phenoxyphenyl)ethy]cyclohexanol dihydrochloride]
2%	CN1CCN(CC(c2ccc(-c3cccc(OC(F)(F)F)c3)cc2)C2(O)CCC2)CC1 (centres unmarked) [Example 295, 1-{2-(4-methylpiperazin-1-yl)-1-[3′-(trifluoromethoxy)-1,1′-biphenyl-4-yl]ethyl}cyclobutanol dihydrochloride]

Same assay, conditions: [3H]NE uptake, test range 1 to 10,000 nM

EC50	Compound
180 nM	N#Cc1cccc(-c2ccc(C(CN3CCNCC3)C3(O)CCCCC3)cc2)c1 (centres unmarked) [Example 168, 1-[1-(3′-cyano-1,1′-biphenyl-4-yl)-2-piperazin-1-ylethyl]cyclohexanol dihydrochloride]
